From US20210332139A1, “MODULATION OF LEUKOCYTE ACTIVITY IN TREATMENT OF NEUROINFLAMMATORY DEGENERATIVE DISEASE” (Leuvas Therapeutics, priority 2013, published 2021) come the findings set out here.

Several values for one entry are separate records, joined by “and”; a condition that tells them apart may be missing. Equal entries are not always repeated.

Assay type in all cases: cell-based
Assay [1] deals with human neutrophils. Description: Rapid adhesion of human neutrophils to fibrinogen and ICAM-1. The conditions noted are these: 0.1 μM, mean+/−SD. From the text:
(§1) All data are expressed as the mean+/−SD of bound cells in 0.2 mm^2 from three independent experiments made in duplicate.

Assay [2] deals with mouse neutrophils. Description: Rapid adhesion of mouse neutrophils to fibrinogen and ICAM-1. The conditions noted are these: fMLP 1 μM, mean+/−SD.
Description: as §1

In a further assay the test system is neutrophils. The assay can be described thus: Rapid adhesion of neutrophils, soluble versus fibrillary Aβ1-42. The conditions noted are these: fMLP, concentration not given, mean+/−SD. From the text: Although two-times less efficient than the soluble form, fibrillary Aβ triggered a significant increase of rapid neutrophil adhesion on both ICAM-1 and fibrinogen (Table 8; data are expressed as the mean+/−SD of bound cells in 0.2 mm^2 from three independent experiments made in duplicate).

The test system of assay [3] is human neutrophils. The assay can be described thus: Rapid human neutrophil adhesion to ICAM-1, inhibition by bocMLF and PTx. The conditions noted are these: 0.1 μM fMLP. The protocol: It is known that one of the receptors for Aβ is the receptor for fMLP, formylpeptide chemotactic receptor (FPR). To evaluate the contribution of this GPCR receptor on Aβ-dependent neutrophil adhesion, we inhibited its function using boc-MLF, a formyl-peptide chemotactic receptor antagonist. Human neutrophils were incubated for 2 minutes with buffer (control) or with oligomeric Aβ. 0.1 μM fMLP was used as a positive control. Values are expressed as the mean counts of bound cells in 0.2 mm^2 from three independent experiments in duplicate. Error bars represent SD. […] To exclude the possibility that rapid adhesion triggering was a consequence of a generic plasma membrane alteration due to the lipophilic nature of Aβ, we evaluated rapid adhesion in lymphocytes, which are known to lack fMLP receptors.

The test system of a further assay is LFA-1. Description: LFA-1 affinity state in human neutrophils (conformer-specific antibodies, cytofluorimetry). The conditions noted are these: 0.1 μM, 10 s, mean fluorescence intensity, ctrl = 1. From the text:
Neutrophil arrest is rapidly triggered by chemokines or other chemoattractants and is mediated by the binding of LFA-1 integrin to its vascular ligand ICAM-1. Ligation of specific heterotrimeric GPCRs by chemokines induces integrins to undergo a dramatic transition from a bent low-affinity conformation to extended intermediate- and high-affinity conformations, which leads to opening of the ligand-binding pocket. We hypothesized that Aβ may trigger intermediate and/or high affinity state of LFA-1 integrin and studied the effect of Aβ1-42 oligomers on human LFA-1 affinity using KIM127 and 327A conformer-specific antibodies for intermediate- and high-affinity state respectively.
The cells were stimulated for 10 s with 0.5 μmol/L of CXCL12, 0.1 μM fMLP, 20 μM Aβ1-42, or 20 μM Aβ42-1 under stirring at 37° C. After rapid washing, cells were stained with FITC-conjugated secondary polyclonal antibody and analyzed by cytofluorimetric quantification. Data are mean fluorescence intensity +/−SD from three independent experiments.

Assay [4] has as its system human neutrophils. The assay can be described thus: Isoluminol chemiluminescence ROS assay, human neutrophils. The conditions noted are these: human neutrophils on fibrinogen, mean+/−SD. The protocol:
One of the mechanisms of neuronal damage by beta-amyloid in Alzheimer's disease is the generation of reactive oxygen species (ROS). We determined whether Aβ1-42 oligomers induce ROS production in neutrophils by using a chemiluminescence assay.
(§2) Isoluminol-based chemiluminescence assays were performed in HGCa in the presence of horseradish peroxidase (HRP) and isoluminol (both from Sigma-Aldrich) in a temperature-controlled Multilabel Count Victor X5 (Perkin Elmer). Assays were run in dark 96 well plates precoated with 250 μg/ml human fibrinogen in HGCa containing (final concentration): 100 μM isoluminol and 8 U/ml HRP. After addition of 1×10^5 human neutrophils or 7.5×10^5 mouse neutrophils, plates were left at 37° C. for 5-10 min and the reaction started by addition of the stimulus. Light emission was recorded every minute.
(§3) We used the chemotactic peptide fMLP as positive control. […] Data are mean+/−SD for three independent experiments.

Assay [5] deals with mouse neutrophils. The assay can be described thus: Isoluminol chemiluminescence ROS assay, mouse neutrophils. The conditions noted are these: mean+/−SD. The procedure:
as §2, §3
Data are mean+/−SD counts per second.

A further assay has as its system human primary PMNs. Description: Static adhesion of human primary PMNs to ICAM-1 with signaling inhibitors. The conditions noted are these: 50 nM fMLP, 1 min. The procedure:
As a model system, human primary PMNs were isolated form healthy donors stimulated to very rapid adhesion to purified human ICAM-1, ligand for the β2 integrins LFA-1 and Maci. fMLP (the classical chemoattractant) was the positive control. […] PMNs were treated for 30 min. with different concentrations of inhibitors followed by stimulation for 1 min with 50 nM fMLP or with 10 μM Aβ. The number of adherent cells was quantified by computer-assisted evaluation. Statistical analysis was SD.

As for fMLP, the “Rapid adhesion to Fibrinogen” value in the assay on human neutrophils [1] was 361.5 ± 88.2 bound cells in 0.2 mm^2; in the assay on mouse neutrophils [2], 72.40 ± 14.33 bound cells in 0.2 mm^2; in the assay with neutrophils, 285.5 ± 14.6 bound cells in 0.2 mm^2. For the same substance, the “Rapid adhesion to ICAM-1” value in the assay with human neutrophils [1] was 203.8 ± 29.2 bound cells in 0.2 mm^2; in the assay with mouse neutrophils [2], 183.6 ± 23.9 bound cells in 0.2 mm^2; with neutrophils it was 578.5 ± 66.5 bound cells in 0.2 mm^2. For the same substance, the “Neutrophil adhesion to ICAM-1, stimulus alone (Ctrl, no inhibitor)” value with human neutrophils [3] was 497.1 ± 33.3 bound cells in 0.2 mm^2 and 484.1 ± 39.7 bound cells in 0.2 mm^2. The “327A (high-affinity state of LFA-1)” value in the assay on LFA-1 came to 4.35 ± 0.63. Moreover, the “KIM127 (intermediate-affinity state of LFA-1)” value with LFA-1 was determined as 2.94 ± 0.21. The “ROS generation (chemiluminescence)” value in the assay with human neutrophils [4] (1 min) came out at 908 ± 137; in the assay with human neutrophils [4] (2 min), 783 ± 108; in the assay with human neutrophils [4] (3 min), 515 ± 103; in the assay on human neutrophils [4] (4 min), 325 ± 158; in the assay with human neutrophils [4] (5 min) it was 272 ± 134; in the assay with mouse neutrophils [5] (1 min), 599 ± 199 counts per second. Also, the “ROS generation (chemiluminescence)” value in the assay with mouse neutrophils [5] (2 min) came out at 231 ± 91 counts per second; in the assay on mouse neutrophils [5] (3 min), 90 ± 17 counts per second; in the assay on mouse neutrophils [5] (4 min), 65 ± 36 counts per second; in the assay on mouse neutrophils [5] (5 min) it was 59 ± 54 counts per second. For the same substance, the “Adherent hPMNs to ICAM-1, fMLP, Mean, Control (no inhibitor)” value in the assay with human primary PMNs was 444.6 and 500.8 and 433.5 and 463.1 and 484.1 and 486.8.
